The source made the active and inactive calls. No cut-off for these calls is given here.
Experiments:
Endothelial lipase [1] = biological target: T1, Endothelial lipase (Homo sapiens, UniProt Q9Y5X9); test: Inhibition of endothelial lipase in human serum; assay type: cell-free
T1 sequence (Q9Y5X9 whole entry): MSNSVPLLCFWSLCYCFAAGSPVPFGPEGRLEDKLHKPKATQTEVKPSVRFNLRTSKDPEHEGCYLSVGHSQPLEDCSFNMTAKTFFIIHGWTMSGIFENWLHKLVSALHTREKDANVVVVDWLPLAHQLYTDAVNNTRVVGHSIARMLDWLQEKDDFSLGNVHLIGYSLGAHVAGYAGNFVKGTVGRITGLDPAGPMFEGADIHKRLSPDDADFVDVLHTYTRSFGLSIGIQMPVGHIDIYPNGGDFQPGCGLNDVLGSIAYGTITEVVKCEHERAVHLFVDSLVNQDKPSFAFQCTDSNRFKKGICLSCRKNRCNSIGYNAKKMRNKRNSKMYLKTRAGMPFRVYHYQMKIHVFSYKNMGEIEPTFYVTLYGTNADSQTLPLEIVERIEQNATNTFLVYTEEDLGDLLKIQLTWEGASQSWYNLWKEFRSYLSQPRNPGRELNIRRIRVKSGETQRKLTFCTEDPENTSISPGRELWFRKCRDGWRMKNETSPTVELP

Cytochrome P450 3A4 = Cytochrome P450 3A4 (Homo sapiens, UniProt P08684); test: Inhibition of CYP3A4 (unknown origin); assay type: ADME
Chain of Cytochrome P450 3A4 (P08684 whole entry): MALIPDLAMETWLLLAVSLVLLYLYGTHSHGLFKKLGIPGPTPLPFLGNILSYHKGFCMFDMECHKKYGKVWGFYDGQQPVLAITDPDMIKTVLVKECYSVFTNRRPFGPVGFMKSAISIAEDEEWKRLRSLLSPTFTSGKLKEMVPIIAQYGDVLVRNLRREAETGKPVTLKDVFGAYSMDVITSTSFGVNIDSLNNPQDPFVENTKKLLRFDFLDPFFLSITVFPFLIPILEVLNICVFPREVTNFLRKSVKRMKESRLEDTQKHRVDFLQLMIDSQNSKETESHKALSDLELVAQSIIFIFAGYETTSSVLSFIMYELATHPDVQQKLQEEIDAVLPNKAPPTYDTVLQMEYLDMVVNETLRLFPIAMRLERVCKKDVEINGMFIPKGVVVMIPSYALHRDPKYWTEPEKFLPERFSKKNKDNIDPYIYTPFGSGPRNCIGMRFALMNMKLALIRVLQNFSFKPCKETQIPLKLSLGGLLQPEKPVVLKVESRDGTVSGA

[2] = Permeability across basolateral to apical side in human Caco2 cells; assay type: ADME, cell-based; conditions: Caco-2, read-out: permeability
[3] = Metabolic stability in mouse liver microsomes assessed as parent compound remaining at 0.5 uM preincubated with compound followed by NADPH addition and measured after 10 mins; assay type: ADME, Microsome; conditions: read-out: Stability
[4] = Permeability across apical to basolateral side in human Caco2 cells; assay type: ADME, cell-based; conditions: Caco-2, read-out: permeability
Cytochrome P450 2C9 = Cytochrome P450 2C9 (Homo sapiens, UniProt P11712); test: Inhibition of CYP2C9 (unknown origin); assay type: ADME
Chain of Cytochrome P450 2C9 (P11712 whole entry): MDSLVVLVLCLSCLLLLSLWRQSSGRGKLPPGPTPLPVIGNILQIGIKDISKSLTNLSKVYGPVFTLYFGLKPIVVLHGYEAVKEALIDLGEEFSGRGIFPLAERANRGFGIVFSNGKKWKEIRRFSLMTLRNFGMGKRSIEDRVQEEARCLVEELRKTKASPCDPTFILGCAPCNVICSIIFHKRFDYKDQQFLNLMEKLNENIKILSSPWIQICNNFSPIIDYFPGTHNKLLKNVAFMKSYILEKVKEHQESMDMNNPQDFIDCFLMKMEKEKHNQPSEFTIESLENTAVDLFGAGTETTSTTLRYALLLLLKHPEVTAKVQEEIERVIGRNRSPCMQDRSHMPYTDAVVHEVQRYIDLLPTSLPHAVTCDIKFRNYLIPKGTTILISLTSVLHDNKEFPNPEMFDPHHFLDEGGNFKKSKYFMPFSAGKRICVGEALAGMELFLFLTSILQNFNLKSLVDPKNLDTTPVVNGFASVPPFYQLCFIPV

Cytochrome P450 1A2 = biological target: T2, Cytochrome P450 1A2 (Homo sapiens, UniProt P05177); test: Inhibition of CYP1A2 (unknown origin); assay type: ADME
T2 sequence (P05177 whole entry): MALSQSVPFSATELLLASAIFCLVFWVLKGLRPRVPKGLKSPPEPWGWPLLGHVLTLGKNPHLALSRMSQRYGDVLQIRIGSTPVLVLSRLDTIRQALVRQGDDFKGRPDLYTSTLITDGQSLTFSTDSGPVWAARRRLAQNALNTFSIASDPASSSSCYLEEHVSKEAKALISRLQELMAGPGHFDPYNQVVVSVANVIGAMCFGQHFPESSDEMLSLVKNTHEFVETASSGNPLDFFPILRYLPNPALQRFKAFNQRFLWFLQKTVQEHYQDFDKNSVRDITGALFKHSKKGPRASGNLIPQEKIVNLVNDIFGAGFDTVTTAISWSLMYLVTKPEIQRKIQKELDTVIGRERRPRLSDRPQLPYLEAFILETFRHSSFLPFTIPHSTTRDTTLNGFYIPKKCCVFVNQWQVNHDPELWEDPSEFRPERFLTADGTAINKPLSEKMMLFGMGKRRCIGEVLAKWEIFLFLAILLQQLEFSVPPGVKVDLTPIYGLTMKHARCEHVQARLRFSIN

[5] = biological target: T3, Hepatic triacylglycerol lipase (Homo sapiens, UniProt P11150); test: Inhibition of hepatic lipase (unknown origin)
T3 sequence (P11150 whole entry): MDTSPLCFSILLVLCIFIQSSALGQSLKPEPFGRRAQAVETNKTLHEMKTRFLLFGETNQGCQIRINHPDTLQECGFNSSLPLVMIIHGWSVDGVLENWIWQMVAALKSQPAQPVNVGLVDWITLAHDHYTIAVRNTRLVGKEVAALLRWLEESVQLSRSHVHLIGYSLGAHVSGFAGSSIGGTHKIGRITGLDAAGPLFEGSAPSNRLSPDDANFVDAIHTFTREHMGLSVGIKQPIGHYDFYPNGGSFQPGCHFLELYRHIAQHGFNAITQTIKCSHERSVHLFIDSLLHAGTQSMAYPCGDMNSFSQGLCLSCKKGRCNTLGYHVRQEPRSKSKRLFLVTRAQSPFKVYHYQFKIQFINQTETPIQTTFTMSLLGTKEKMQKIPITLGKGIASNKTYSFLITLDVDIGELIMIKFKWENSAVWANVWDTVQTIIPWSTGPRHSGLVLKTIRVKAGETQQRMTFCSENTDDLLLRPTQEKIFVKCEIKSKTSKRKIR

[6] = Permeability of compound at pH 5.0 by PAMPA; assay type: ADME; conditions: read-out: permeability
Cytochrome P450 2C19 = Cytochrome P450 2C19 (Homo sapiens, UniProt P33261); test: Inhibition of CYP2C19 (unknown origin); assay type: ADME
Chain of Cytochrome P450 2C19 (P33261 whole entry): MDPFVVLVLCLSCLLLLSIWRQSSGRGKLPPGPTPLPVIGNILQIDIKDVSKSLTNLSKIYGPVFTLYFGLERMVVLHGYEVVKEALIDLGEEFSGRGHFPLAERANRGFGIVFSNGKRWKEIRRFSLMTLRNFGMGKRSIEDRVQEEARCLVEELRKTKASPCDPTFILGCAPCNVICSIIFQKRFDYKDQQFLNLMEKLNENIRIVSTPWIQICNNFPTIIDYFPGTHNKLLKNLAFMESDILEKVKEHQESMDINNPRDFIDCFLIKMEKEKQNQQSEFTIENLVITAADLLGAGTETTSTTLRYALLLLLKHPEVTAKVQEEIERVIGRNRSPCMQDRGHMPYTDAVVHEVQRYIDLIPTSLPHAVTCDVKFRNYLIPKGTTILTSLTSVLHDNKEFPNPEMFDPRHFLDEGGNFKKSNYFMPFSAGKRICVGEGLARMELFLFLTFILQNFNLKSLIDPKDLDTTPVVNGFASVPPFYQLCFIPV

[7] = Permeability of compound at pH 7.4 by PAMPA; assay type: ADME; conditions: read-out: permeability
[8] = Metabolic stability in human liver microsomes assessed as parent compound remaining at 0.5 uM preincubated with compound followed by NADPH addition and measured after 10 mins; assay type: ADME, Microsome; conditions: read-out: Stability
Cytochrome P450 2D6 = Cytochrome P450 2D6 (Homo sapiens, UniProt P10635); test: Inhibition of CYP2D6 (unknown origin); assay type: ADME
Chain of Cytochrome P450 2D6 (P10635 whole entry): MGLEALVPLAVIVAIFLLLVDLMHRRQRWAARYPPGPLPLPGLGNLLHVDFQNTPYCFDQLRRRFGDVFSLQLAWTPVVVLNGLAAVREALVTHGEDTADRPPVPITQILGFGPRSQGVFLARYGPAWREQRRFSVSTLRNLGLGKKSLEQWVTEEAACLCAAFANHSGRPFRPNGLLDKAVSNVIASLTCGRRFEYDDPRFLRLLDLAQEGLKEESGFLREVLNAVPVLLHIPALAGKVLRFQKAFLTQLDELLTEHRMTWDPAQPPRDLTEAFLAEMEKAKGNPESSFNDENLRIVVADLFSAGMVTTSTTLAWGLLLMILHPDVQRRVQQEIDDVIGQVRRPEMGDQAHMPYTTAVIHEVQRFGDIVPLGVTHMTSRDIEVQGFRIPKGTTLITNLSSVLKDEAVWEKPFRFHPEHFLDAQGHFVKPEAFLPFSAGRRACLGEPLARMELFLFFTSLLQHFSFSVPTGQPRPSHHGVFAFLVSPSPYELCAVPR

Endothelial lipase [9] = biological target: T1, Endothelial lipase; test: Inhibition of endothelial lipase (unknown origin)
[10] = AUC (0 to 24 hrs) in BALB/c mouse at 50 mg/kg, ip measured up to 24 hrs; assay type: ADME, organism-based; set-up: time < 24 hr, dose 50 mg/kg, route intraperitoneal; conditions: in vivo
[11] = Half life in BALB/c mouse at 10 mg/kg, po; assay type: ADME, organism-based; conditions: in vivo
[12] = Tmax in BALB/c mouse at 10 mg/kg, po; assay type: ADME, organism-based; conditions: in vivo
[13] = Cmax in BALB/c mouse at 50 mg/kg, ip; assay type: ADME, organism-based; set-up: dose 50 mg/kg, route intraperitoneal; conditions: in vivo
[14] = Tmin in BALB/c mouse at 50 mg/kg, ip; assay type: ADME, organism-based; conditions: in vivo
[15] = Cmax in BALB/c mouse at 10 mg/kg, po; assay type: ADME, organism-based; set-up: dose 10 mg/kg, route oral; conditions: in vivo
[16] = Plasma concentration in BALB/c mouse at 10 mg/kg, po measured at 24 hrs post dose; assay type: ADME, organism-based
Mus musculus [17] = test: Antiatherosclerotic in C57BL/6 mouse assessed as change in phospholipid level in plasma at 50 mg/kg, ip qd administrated for 2 days and measured 6 hrs post last dose by FPLC analysis; assay type: functional, organism-based
[18] = Ratio of Cmin in BALB/c mouse to IC50 for endothelial lipase in human serum; assay type: ADME; conditions: in vivo
[19] = AUC (0 to 24 hrs) in BALB/c mouse at 10 mg/kg, po; assay type: ADME, organism-based; set-up: time < 24 hr, dose 10 mg/kg, route oral; conditions: in vivo
[20] = Plasma concentration in BALB/c mouse at 50 mg/kg, ip measured at 24 hrs post dose; assay type: ADME, organism-based
[21] = Tmax in BALB/c mouse at 50 mg/kg, ip; assay type: ADME, organism-based; conditions: in vivo
[22] = biological target: T4, Endothelial lipase (Homo sapiens) (UniProt Q9Y5X9); test: Reversible inhibition of endothelial lipase (unknown origin) assessed as recovery of enzyme activity measured after 24 hrs by dialysis based assay relative to control; set-up: scale not given: the % may be the effect or the level left
T4 sequence (whole entry): T1 sequence (Q9Y5X9 whole entry)

Mus musculus [23] = test: Antiatherosclerotic in C57BL/6 mouse assessed as increase in HDL-cholesterol level in plasma at 50 mg/kg, ip qd administrated for 2 days and measured 6 hrs post last dose by FPLC analysis; assay type: functional, organism-based
[24] = Half life in BALB/c mouse at 50 mg/kg, ip; assay type: ADME, organism-based; conditions: in vivo

Row | Compound | IC50 (Endothelial lipase [1]) [nM] | IC50 (Cytochrome P450 3A4) [nM] | Papp B→A [2] [×10⁻⁶ cm/s] | remaining at 10 min, 0.5 µM [3] [%] | Papp A→B [4] [×10⁻⁶ cm/s] | IC50 (Cytochrome P450 2C9) [nM] | IC50 (Cytochrome P450 1A2) [nM] | IC50 [5] [nM] | Papp [6] [×10⁻⁶ cm/s] | IC50 (Cytochrome P450 2C19) [nM] | Papp [7] [×10⁻⁶ cm/s] | remaining at 10 min, 0.5 µM [8] [%] | IC50 (Cytochrome P450 2D6) [nM] | IC50 (Endothelial lipase [9]) [nM] | further results
1 | CN1CCN(C(=O)c2ccc(-c3ccc4nc(C(C#N)C(=O)NCC(=O)NC5CCC5)sc4c3)cc2)CC1 (racemic) | 200 |  |  |  |  |  |  | 490 |  |  |  |  |  | 3100 | 
2 | N#CC(C(=O)NCC(=O)NC1CC1)c1nc2ccc(-c3ccc(F)nc3)cc2s1 (racemic) | 230 |  |  |  |  |  |  | 500 |  |  |  |  |  | 170 | 
3 | N#CC(C(=O)NCC(=O)NC1CC1)c1nc2ccc(-c3ccc(C(=O)N4CCC4)cc3)cc2s1 (racemic) | 170 |  |  |  |  |  |  | 170 |  |  |  |  |  |  | 
4 | N#CC(C(=O)NCC(=O)NC1CC1)c1nc2ccc(-c3ccc4c(c3)C(=O)NC4)cc2s1 (racemic) | 130 |  |  |  |  |  |  | 420 |  |  |  |  |  |  | 
5 | N#CC(C(=O)NCC(=O)NC1CC1)c1nc2ccc(-c3cccc(C(=O)N4CCCCC4)c3)cc2s1 (racemic) | 140 |  |  |  |  |  |  | 35 |  |  |  |  |  |  | 
6 | N#CC(C(=O)NCC(=O)N1CCCC1)c1nc2ccc(-c3ccccc3)cc2s1 (racemic) | 1100 |  |  |  |  |  |  | 250 |  |  |  |  |  | 1300 | 

These reach a lower IC50 (Endothelial lipase [1]). Values come first.

Row | IC50 (Endothelial lipase [1]) [nM] | IC50 (Cytochrome P450 3A4) [nM] | Papp B→A [2] [×10⁻⁶ cm/s] | remaining at 10 min, 0.5 µM [3] [%] | Papp A→B [4] [×10⁻⁶ cm/s] | IC50 (Cytochrome P450 2C9) [nM] | IC50 (Cytochrome P450 1A2) [nM] | IC50 [5] [nM] | Papp [6] [×10⁻⁶ cm/s] | IC50 (Cytochrome P450 2C19) [nM] | Papp [7] [×10⁻⁶ cm/s] | remaining at 10 min, 0.5 µM [8] [%] | IC50 (Cytochrome P450 2D6) [nM] | IC50 (Endothelial lipase [9]) [nM] | Compound | further results
7 | 50 | > 18000 | 34.9 | 87 | < 1.5 | > 18000 | > 18000 | 190 | 6.5 | > 18000 | 0.4 | 87 | > 18000 |  | N#CC(C(=O)NCC(=O)NC1COC1)c1nc2ccc(-c3ccc(F)nc3)cc2s1 (racemic) | 
8 | 30 | > 18000 | 7.5 | 99 | < 1.5 | > 18000 | > 18000 | 720 | 8.4 | > 18000 | 0.3 | 76 | > 18000 |  | CN(C)C(=O)c1cccc(-c2ccc3nc(C(C#N)C(=O)NCC(=O)NC4CC4)sc3c2)c1 (racemic) | 
9 | 50 | > 18000 | 18.4 | 100 | 1.7 | > 18000 | > 18000 | 300 | 10.4 | > 18000 | 0.4 | 98 | > 18000 |  | N#CC(C(=O)NCC(=O)NC1CC1)c1nc2ccc(-c3ccc(C(=O)N4CCOCC4)cc3)cc2s1 (racemic) | 
10 | 70 |  |  |  |  |  |  | 1100 |  |  |  |  |  |  | CN(C)C(=O)c1ccc(-c2ccc3nc(C(C#N)C(=O)NCC(=O)NC4CC4)sc3c2)cc1F (racemic) | 
11 | 100 |  |  |  |  |  |  | 70 |  |  |  |  |  | 5.3 | N#CC(C(=O)NCC(=O)NC1CC1)c1nc2ccc(-c3ccc4c(c3)CNC4=O)cc2s1 (racemic) | 
12 | 80 |  |  |  |  |  |  | 0.8 |  |  |  |  |  | 1 | N#CC(C(=O)NCC(=O)NC1CC1)c1nc2ccc(-c3ccc(NC(=O)OCc4ccccc4)cc3)cc2s1 (racemic) | 
13 | 30 | > 18000 | 3 | 91 | < 1.5 | > 18000 | > 18000 | 1800 | 0.2 | > 18000 | 0.3 | 78 | > 18000 |  | CN1CCN(C(=O)c2ccc(-c3ccc4nc(C(C#N)C(=O)NCC(=O)NC5CC5)sc4c3)cc2)CC1 (racemic) | 
14 | 51 | > 18000 | 24.6 | 86 | 2 | > 18000 | > 18000 | 5.4 | 162 | > 18000 | 84.5 | 91 | > 18000 |  | N#CC(C(=O)NCC(=O)NC1CC1)c1nc2ccc(-c3ccccc3)cc2s1 (racemic) | AUC(0-t) at 24 h [10]: 330 µM·h; half-life [11]: 8.5 h; Tmax [12]: 0.25 h; Cmax [13]: 28 µM; Tmin [14]: 23.8 h; Cmax [15]: 6.6 µM; concentration at 24 h [16]: 0.14 µM; Activity (Mus musculus [17]): inactive; Ratio [18]: > 30; AUC(0-t) at 24 h [19]: 18 µM·h; concentration at 24 h [20]: 1.66 µM; Tmax [21]: 7 h; Activity [22]: 88%; Activity (Mus musculus [23]): inactive; half-life [24]: 4.7 h

Reference: ChEMBL document CHEMBL4396970, “Benzothiazole-based compounds as potent endothelial lipase inhibitors” (Bioorg Med Chem Lett, 2019)
